By inhibition is commonly meant the drop in the measured response relative to a control, in per cent. As a reminder, the IC50 is the concentration that inhibits the measured activity by half.

Like-named read-outs stand apart in the source and are kept apart here.

For experiment [1], the target named is T1, human aquaporin-4 M23 isoform (hAQP4b) (Homo sapiens, UniProt P55087).
T1 construct: Full-length cRNA was subcloned into pSP35T expression vector for Xenopus oocytes; expressed in transfected cells; host or cells: Xenopus laevis oocytes injected with hAQP4b cRNA (pSP35T vector)
The experiment in a line: Inhibition of AQP4 mediated hypoosmotic swelling of Xenopus laevis oocytes expressing hAQP4b. The experiment is classed as cell-based. Particulars: for inhibition at 20 µM / % Inh (percent inhibition and cumulated error): Table 3, [X]=20 μM, P<0.05; for inhibition at 20 µM: read-out: % Inh (percent inhibition and cumulated error). On the procedure:
Compounds studied in vitro were purchased from Sigma-Aldrich, Tokyo Kasei, Wako or Scientific Exchange, and were used without further purification. […] Compound samples were freshly dissolved into DMSO (Sigma, Hibri-Max) and diluted into RO deionized water (Milipore, Ultra-Q) prior to use. Other reagents were purchased from Sigma and Wako and were used without modification. Modified Barth's Medium (MBS) and isolation buffer were prepared using autoclaved, doubly distilled water. MBS was used for up to one week after its preparation. […] Isolation buffer was prepared to contain NaCl (108 mM), KCl (2 mM), EDTA, (2 mM), HEPES (10 mM), and was at pH=7.5.
cDNA encoding human aquaporin-4 M23 isoform (hAQP4b) was cloned by reverse-transcription polymerase chain reaction (RT-PCR). First-strand cDNA was synthesized from human cerebellum total RNA by using the Advantage RT-for-PCR Kit (CLONTECH). The following oligonucleotide PCR primers were designed based on published hAQP4b sequences (Lu, et al. Proc. Nat. Acad. Sci. USA 1996, 93, 10908): forward 5′-[…]-3′, reverse 5′-[…]-3′. Full-length cRNA was subcloned into pSP35T expression vector for Xenopus oocytes (Amaya, et al. Cell 1991, 66, 257).
Oocytes from an adult, female Xenopus laevis were transferred portion-wise to a Petri dish containing isolation buffer, where the follicular membranes and vitelline were removed manually, thereby yielding denuded oocytes (Sakimura, et al. FEBS Lett. 1990, 272, 73). Denuded stage V-VI oocytes were then returned to fresh MBS medium and allowed to equ ilibrate for a minimum of 2 h at 18° C. prior to cRNA injection. Denuded oocytes unused after 24 h were discarded. An aliquot of hAQP4b cRNA solution (20 μL) was pelleted by centrifugation (15,000 rpm, 14 min, 4° C.), the pellet was washed sequentially with 70% aqueous ethanol, then 100% ethanol (centrifugation between washes at 15,000 rpm, 3 min, 4° C.), air dried, and finally reconstituted in distilled water (10 μL). An aliquot (30 nL) of either the resulting 0.1 μg/μL cRNA solution (3 ng hAQP4b cRNA/oocyte) or distilled water (sham) was injected into each oocyte using a Drummond oocyte injection system. The injected oocytes were then incubated for 48 h at 18° C. in MBS. The medium was changed and non-viable oocytes removed 24 and 48 h post injection.
An oocyte assay procedure was developed as follows: At a minimum of 3 h prior to the assay, oocytes were transferred to a 96 well microplate (Falcon 353077) along with 45 μL of MBS. An aliquot of a 200 μM inhibitor solution (5 μL, 1% aq. DMSO), or blank (5 μL, 1% aq. DMSO) was introduced to the oocyte containing well 2 h before the assay. The final concentration of the incubation medium was 20 μM in inhibitor with 0.1% DMSO. A secondary plate was likewise prepared by diluting an aliquot of the 200 μM inhibitor solution (15 μL, 1% aq. DMSO) or blank (15 μL, 1% aq. DMSO) with distilled water (135 μL). The assay was performed by transferring an aliquot of the secondary plate medium (100 μL) to the corresponding well on the incubation plate. […] The initial image (nominally t=3 s) and subsequent images (60 s intervals) were recorded for up to 4 minutes post dilution.
Images were transferred to a PC and the area of each oocyte was evaluated using NIH Image-J. The cross-sectional area values for each oocyte at time=t were converted to volumes assuming a spherical relationship. The relative volume of each oocyte compared to its initial volume was then determined. Relative oocyte volumes were then averaged for n oocytes along with the standard error at each point.

Experiment [2] deals with T1, human aquaporin-4 M23 isoform (hAQP4b). The experiment is described as above. The experiment is classed as cell-based. Further details: IAmax: unit not given here. The following applies: for IAmax: value in parentheses after IC50, 0.01≦[X]≦100 μM.
Another experiment deals with HEK293 cells. The following applies: literature report, isozyme not demonstrated; cited from earlier work.
In a further experiment the target is T2, AQP1 (Homo sapiens, UniProt P29972).
T2 sequence (P29972 1-269): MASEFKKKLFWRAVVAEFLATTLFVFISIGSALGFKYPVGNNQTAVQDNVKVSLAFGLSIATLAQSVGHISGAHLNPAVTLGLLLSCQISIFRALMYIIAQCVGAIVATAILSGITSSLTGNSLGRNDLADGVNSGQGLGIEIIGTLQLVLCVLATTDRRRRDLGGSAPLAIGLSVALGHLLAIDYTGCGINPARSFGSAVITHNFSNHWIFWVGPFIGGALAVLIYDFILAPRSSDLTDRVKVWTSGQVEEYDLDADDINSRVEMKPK
The following applies: literature report; cited from earlier work.

The target of another experiment is AQP4 (Homo sapiens, UniProt P55087). Particulars: literature report; cited from earlier work.
Where [3] appears, read: Table 3, from inhibitory data at 0.01≦[X]≦100 μM, read-out: IC50.
[4] abbreviates: figure legends FIGS. 8-12, non-linear least squares fit of dose dependent inhibition, read-out: IC50.

T1 sequence (P55087 23-323): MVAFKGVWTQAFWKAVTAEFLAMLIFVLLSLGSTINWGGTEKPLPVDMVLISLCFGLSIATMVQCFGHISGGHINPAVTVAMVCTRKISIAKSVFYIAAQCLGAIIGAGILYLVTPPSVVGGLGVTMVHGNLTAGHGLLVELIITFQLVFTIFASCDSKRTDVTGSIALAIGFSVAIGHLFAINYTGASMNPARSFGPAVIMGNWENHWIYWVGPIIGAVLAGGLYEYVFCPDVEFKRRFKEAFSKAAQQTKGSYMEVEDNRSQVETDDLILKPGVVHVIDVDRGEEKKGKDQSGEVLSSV
AQP4, sequence (P55087 whole entry): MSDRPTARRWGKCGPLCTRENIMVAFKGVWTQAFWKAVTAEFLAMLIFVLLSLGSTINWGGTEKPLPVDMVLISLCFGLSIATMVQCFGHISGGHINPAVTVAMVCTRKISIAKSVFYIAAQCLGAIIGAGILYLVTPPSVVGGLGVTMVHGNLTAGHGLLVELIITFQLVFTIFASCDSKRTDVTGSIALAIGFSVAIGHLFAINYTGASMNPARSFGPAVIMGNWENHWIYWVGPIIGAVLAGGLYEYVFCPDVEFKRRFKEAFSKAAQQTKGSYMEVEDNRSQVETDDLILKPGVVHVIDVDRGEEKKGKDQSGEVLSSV

Turning to `CC(=O)Nc1nnc(S(N)(=O)=O)s1` [Compound 1, N-(5-sulfamoyl-1,3,4-thiadiazol-2-yl)acetamide], in experiment [1], the inhibition at 20 µM was found to be 78 ± 3%. The “dose response dependent inhibition of AQP4 mediated water transport” value in experiment [2] (FIG. 7, 0.01, 0.1, 1.0 and 10 μM solutions, n=5) is reported as “significant inhibition”. Also, the IC50 in experiment [2] (Table 3, from inhibitory data at 0.01≦[X]≦100 μM) was 0.86 µM. Moreover, the IAmax in experiment [2] (Table 3) turned out to be 86.

Consider `CC(=O)Nc1ccc(S(N)(=O)=O)cc1` [Compound 3, N-(4-sulfamoylphenyl)acetamide], for which the inhibition at 20 µM in experiment [1] came to 23 ± 5%.

Regarding `O=C1NC(=O)C(c2ccccc2)(c2ccccc2)N1` [Compound 4, 5,5-diphenylimidazolidine-2,4-dione], the inhibition at 20 µM in experiment [1] was 58 ± 4%. Besides, the IC50 in experiment [2] (setting [3]) amounted to 9.8 µM. Also, the IAmax in experiment [2] (Table 3) is given as 60.

As to `NC(=O)N1c2ccccc2CC(=O)c2ccccc21` [Compound 5, 10-oxo-10,11-dihydro-5H-dibenzo [b,f]azepine-5-carboxamide], the inhibition at 20 µM in experiment [1] is 33 ± 4%.

Consider `NC(=O)N1c2ccccc2[C@H]2O[C@H]2c2ccccc21` [Compound 6, (1aR, 10bS)-1aH-dibenzo[b,f] oxireno[2,3-d]azepine-6(10bH)-carboxamide], for which the “inhibition of AQP4 mediated water swelling / water transport” value in experiment [1] (FIGS. 1-6, 20 μM inhibitor, hypoosmotic conditions, versus sham and blank oocytes, n=5 minimum) is reported as “did not show a significantly inhibited water transport”. Also, in experiment [1], the inhibition at 20 µM is 40 ± 7%.

As to `Nc1nnc(-c2cccc(Cl)c2Cl)c(N)n1` [Compound 7, 6-(2,3-dichlorophenyl)-1,2,4-triazine-3,5-diamine], the inhibition at 20 µM in experiment [1] was determined as 54 ± 9%. Moreover, the IC50 in experiment [2] (setting [3]) stood at 8.1 µM. For the same compound, the IAmax in experiment [2] (Table 3) turned out to be 64.

Take `CC1(C)O[C@@H]2[C@@H](CO[C@@]3(COS(N)(=O)=O)OC(C)(C)O[C@@H]23)O1` [Compound 8, ((3aS,5aR,8aR,8bS)-2,2,7,7-tetra-methyltetrahydro-3aH-bis[1,3]dioxolo[4,5-b:4′,5′-d]pyran-3a-yl) methyl sulfamate]: the “% Inh (percent inhibition and cumulated error)” value in experiment [1] was 67 ± 6%. For the same compound, the IC50 in experiment [2] (setting [3]) is 10.1 µM. Further, the IAmax in experiment [2] (Table 3) is listed as 75.

As to `NS(=O)(=O)Cc1noc2ccccc12` [Compound 9, benzo[d]isoxazol-3-ylmethane sulfonamide], the inhibition at 20 µM in experiment [1] is 19 ± 5%.

On to `O=C(Nc1nncs1)c1cccnc1` [Compound 10, N-(1,3,4-thiadiazol-2-yl) nicotinamide], for which the inhibition at 20 µM in experiment [1] is 67 ± 6%. For the same compound, the IC50 in experiment [2] (setting [3]) was 3.1 µM. Further, the IAmax in experiment [2] (Table 3) turned out to be 73.

As for `O=C(Nc1nccs1)c1cccnc1` [Compound 11, N-(thiazol-2-yl)nicotinamide], the inhibition at 20 µM in experiment [1] was 21 ± 7%. The IC50 in experiment [2] (setting [3]) worked out at 3.4 µM. In experiment [2] (Table 3), the IAmax turned out to be 23.

As for `O=S(=O)(Cc1ccccc1)Nc1nncs1` [Compound 12, 1-phenyl-N-(1,3,4-thiadiazol-2-yl) methanesulfonamide], in experiment [1], the “% Inh (percent inhibition and cumulated error)” value was 45 ± 8%.

For the compound `NS(=O)(=O)c1ccc(Cl)s1` [Compound 13, 2-chlorothiophene-5-sulfonamide], the inhibition at 20 µM in experiment [1] is 18 ± 9%.

`NC(=O)c1nc[nH]c1C(N)=O` [Compound 14, 1H-imidazole-4,5-dicarboxamide]: the inhibition at 20 µM in experiment [1] was found to be 23 ± 8%.

Take `CN(C)CCc1c[nH]c2ccc(Cn3cncn3)cc12` [Compound 15, 2-(5-((1H-1,2,4-triazol-1-yl)methyl)-1H-indol-3-yl)-N,N-dimethylethanamine]: in experiment [1], the inhibition at 20 µM amounted to 51 ± 5%. Besides, the IC50 in experiment [2] (setting [3]) was 2.9 µM. In experiment [2] (Table 3), the IAmax was 54.

Regarding `COC(=O)Nc1nc2ccc(C(=O)c3cccs3)cc2[nH]1` [Nocodazole], the “inhibition of AQP4 mediated hypoosmotic expansion” value with HEK293 cells is reported as “inhibiting the AQP4 mediated hypoosmotic expansion of HEK293 cells”.

Take `CC(=O)Nc1nnc(S(N)(=O)=O)s1` [Table 3 entry 1, N-(5-sulfamoyl-1,3,4-thiadiazol-2-yl)acetamide]: in experiment [1], the midpoint of inhibition, the IC50, lay at 0.86 µM.

In the case of `O=C1NC(=O)C(c2ccccc2)(c2ccccc2)N1` [Table 3 entry 4, 5,5-diphenylimidazolidine-2,4-dione], in experiment [2] (setting [4]), the IC50 was 9.8 µM.

For `CC1(C)O[C@@H]2[C@@H](CO[C@@]3(COS(N)(=O)=O)OC(C)(C)O[C@@H]23)O1` [Table 3 entry 8, ((3aS,5aR,8aR,8bS)-2,2,7,7-tetra-methyltetrahydro-3aH-bis[1,3]dioxolo[4,5-b:4′,5′-d]pyran-3a-yl) methyl sulfamate], the IC50 in experiment [2] (setting [4]) was 10.1 µM.

In the case of `O=C(Nc1nncs1)c1cccnc1` [Table 3 entry 10, N-(1,3,4-thiadiazol-2-yl) nicotinamide], the IC50 in experiment [2] (setting [4]) was 3.1 µM.

Consider `CN(C)CCc1c[nH]c2ccc(Cn3cncn3)cc12` [Table 3 entry 15, 2-(5-((1H-1,2,4-triazol-1-yl)methyl)-1H-indol-3-yl)-N,N-dimethylethanamine], for which the IC50 in experiment [2] (setting [4]) is 2.9 µM.

Consider `CC(=O)Nc1nnc(S(N)(=O)=O)s1` [acetazolamide], for which the “inhibition of AQP1” value at AQP1 was “inhibited in a dose dependent manner”.

On to `CC[N+](CC)(CC)CC.[Cl-]` [tetraethyl ammonium chloride], for which the “inhibition of AQP4” value on AQP4 is “shown to inhibit AQP4”.

The record behind these values is patent US7659312B2, “Inhibitors of Aquaporin 4, methods and uses thereof” (Niigata University, priority 2006, dated 2010).
